Assays:
[1] = cynomolgus monkey, in vivo
MeV IC323-eGFP [2] = assay: Serial viral passaging in presence of peptide, sequencing for escape variants; details: 1μM peptide added after infection, 8 serial passages on Vero SLAM cells, 100 PFU per passage, sequencing of viral RNA
[3] = Laser diffraction and nebulizer performance of aerosol from prototype mesh nebulizer; format: physicochemical; details: 3 ml of 4 mg/ml, mean + SD of four devices
Procedure: The aerodynamic performances of the aerosols generated by the prototype mesh nebulizer were determined by laser diffraction using a Spraytec™ instrument (Malvern Instruments Ltd., Malvern, UK) and the Spraytec inhalation cell (Malvern Instruments Ltd., Malvern, UK) connected to an aspiration carried out by a vacuum pump set to 30–50L/min [69]. The prototype mesh nebulizers (n=4) were loaded with 3 ml of either NaCl 0.9% or the HCR4 peptide (4 mg/ml, dissolved as described above) and then connected to the inhalation cell. Nebulization duration was notified at the end of the complete aerosolization of the loaded 3 ml. Diffraction data and volume distribution were automatically registered by the Spraytec software.
The output of nebulizer was determined by the difference between the weight of the nebulizer before and after nebulization and was expressed in percentage of the loaded volume. The output rate of each nebulizer (in ml/min) was then determined as the ratio between the output and the nebulization duration. At least, the residual volume corresponding to the volume of liquid remaining in the reservoir at the end of the nebulization was also determined by weighting the nebulizer before loading it and after nebulization.
25 Table S1. […]
28 1 VMD for Volume Median Diameter, presents the mean size of generated aerosols, measured by […]

MeV [4] = assay: Plaque reduction assay on Vero-hSLAM cells; details: prototype mesh nebulizer
MeV IC323-eGFP [5] = assay: Nebulized peptide in MeV-infected cynomolgus macaques; details: absence of fluorescent rash, PBMC infection, viremia, viral shedding, MeV-specific immune response
[6] = Solubility of peptide for nebulization; format: physicochemical; details: dissolved in filtered Milli-Q water to 4 mg/ml, pH adjusted to 7, HEPES buffer
MeV [7] = details: intranasal administration, cited from earlier work
Excerpt: MeV uses several receptors to infect target cells. […] Infection is initiat ...

MeV [8] = details: cell culture and organotypic brain cultures; cited from earlier work

Deposition in macaque, Lungs [1]	SMILES	Mutations in MeV F after 8th passage (MeV IC323-eGFP [2])	VMD ([3]; laser diffraction (Spraytec)) [μm]	< 5µm ([3]; percentage of particles smaller than 5 µm)	Antiviral activity after versus before nebulization (MeV [4])	Development of MeV infection (MeV IC323-eGFP [5])	Solubility [6]	Survival of mice (MeV [7]; humanized transgenic mouse models of lethal measles disease)	Viral titer in cotton rat lungs (MeV [7])	Inhibition of the fusion process (MeV [8])
11.4 +/- 3.1%	O=C([O-])CN(CCN(CC(=O)[O-])CC(=O)[O-])CCN(CC(=O)[O-])CC(=O)[O-].[99Tc+4] [99mTC-DTPA, DTPA radiolabeled with technetium 99m]									
	CC[C@H](C)[C@H](NC(=O)[C@H](C)NC(=O)[C@H](CC(N)=O)NC(=O)CNC(=O)[C@H](CC(C)C)NC(=O)[C@H](CC(N)=O)NC(=O)[C@@H](NC(=O)CNC(=O)[C@@H](NC(=O)[C@H](CC(=O)O)NC(=O)[C@H](CC(C)C)NC(=O)[C@H](CCCNC(=N)N)NC(=O)[C@H](CCC(=O)O)NC(=O)[C@H](CC(C)C)NC(=O)[C@H](CO)NC(=O)[C@@H](NC(=O)[C@@H]1CCCN1C(=O)[C@@H]1CCCN1)[C@@H](C)CC)C(C)C)[C@@H](C)O)C(=O)N[C@@H](C)C(=O)N[C@@H](CCCCN)C(=O)N[C@@H](CC(C)C)C(=O)N[C@@H](CCC(=O)O)C(=O)N[C@@H](CC(=O)O)C(=O)N[C@@H](C)C(=O)N[C@@H](CCCCN)C(=O)N[C@@H](CCC(=O)O)C(=O)N[C@@H](CC(C)C)C(=O)N[C@@H](CC(C)C)C(=O)N[C@@H](CCC(=O)O)C(=O)N[C@@H](CO)C(=O)N[C@@H](CO)C(=O)N[C@@H](CC(=O)O)C(=O)N[C@@H](CCC(N)=O)C(=O)N[C@H](C(=O)N[C@@H](CC(C)C)C(=O)N[C@@H](CCCNC(=N)N)C(=O)NCC(=O)N[C@@H](CO)C(=O)NCC(=O)N[C@@H](CO)C(=O)NCC(=O)N[C@@H](CSC1CC(=O)N(CCCC(=O)NCCOCCOCCOCCOCCC(=O)NCCN(CCNC(=O)CCOCCOCCOCCOCCNC(=O)CCCN2C(=O)CC(SC[C@H](NC(=O)CNC(=O)[C@H](CO)NC(=O)CNC(=O)[C@H](CO)NC(=O)CNC(=O)[C@H](CCCNC(=N)N)NC(=O)[C@H](CC(C)C)NC(=O)[C@@H](NC(=O)[C@H](CCC(N)=O)NC(=O)[C@H](CC(=O)O)NC(=O)[C@H](CO)NC(=O)[C@H](CO)NC(=O)[C@H](CCC(=O)O)NC(=O)[C@H](CC(C)C)NC(=O)[C@H](CC(C)C)NC(=O)[C@H](CCC(=O)O)NC(=O)[C@H](CCCCN)NC(=O)[C@H](C)NC(=O)[C@H](CC(=O)O)NC(=O)[C@H](CCC(=O)O)NC(=O)[C@H](CC(C)C)NC(=O)[C@H](CCCCN)NC(=O)[C@H](C)NC(=O)[C@@H](NC(=O)[C@H](C)NC(=O)[C@H](CC(N)=O)NC(=O)CNC(=O)[C@H](CC(C)C)NC(=O)[C@H](CC(N)=O)NC(=O)[C@@H](NC(=O)CNC(=O)[C@@H](NC(=O)[C@H](CC(=O)O)NC(=O)[C@H](CC(C)C)NC(=O)[C@H](CCCNC(=N)N)NC(=O)[C@H](CCC(=O)O)NC(=O)[C@H](CC(C)C)NC(=O)[C@H](CO)NC(=O)[C@@H](NC(=O)[C@@H]3CCCN3C(=O)[C@@H]3CCCN3)[C@@H](C)CC)C(C)C)[C@@H](C)O)[C@@H](C)CC)[C@@H](C)CC)C(=O)O)C2=O)CCO[C@H]2CC[C@@]3(C)C(=CC[C@H]4[C@@H]5CC[C@H]([C@H](C)CCCC(C)C)[C@@]5(C)CC[C@@H]43)C2)C1=O)C(=O)O)[C@@H](C)CC (stereo partly shown) [HRC4]	no mutations	4	Approximately 58%	did not cause any loss of activity	abrogated the development of MeV infection in two out of three animals	soluble in water	significant increase in survival of mice	reduction of the viral titer in cotton rat lungs	inhibited the fusion process

From publication PMC9176655, “Nebulized fusion inhibitory peptide protects cynomolgus macaques from measles virus infection” (Research Square, 2022)
